The target in test [1] is T1, Recombinant human AOC1/DAO protein (Homo sapiens, UniProt P19801).
T1 construct: purchased R&D systems 8298-AO
T1 sequence (P19801 20-751): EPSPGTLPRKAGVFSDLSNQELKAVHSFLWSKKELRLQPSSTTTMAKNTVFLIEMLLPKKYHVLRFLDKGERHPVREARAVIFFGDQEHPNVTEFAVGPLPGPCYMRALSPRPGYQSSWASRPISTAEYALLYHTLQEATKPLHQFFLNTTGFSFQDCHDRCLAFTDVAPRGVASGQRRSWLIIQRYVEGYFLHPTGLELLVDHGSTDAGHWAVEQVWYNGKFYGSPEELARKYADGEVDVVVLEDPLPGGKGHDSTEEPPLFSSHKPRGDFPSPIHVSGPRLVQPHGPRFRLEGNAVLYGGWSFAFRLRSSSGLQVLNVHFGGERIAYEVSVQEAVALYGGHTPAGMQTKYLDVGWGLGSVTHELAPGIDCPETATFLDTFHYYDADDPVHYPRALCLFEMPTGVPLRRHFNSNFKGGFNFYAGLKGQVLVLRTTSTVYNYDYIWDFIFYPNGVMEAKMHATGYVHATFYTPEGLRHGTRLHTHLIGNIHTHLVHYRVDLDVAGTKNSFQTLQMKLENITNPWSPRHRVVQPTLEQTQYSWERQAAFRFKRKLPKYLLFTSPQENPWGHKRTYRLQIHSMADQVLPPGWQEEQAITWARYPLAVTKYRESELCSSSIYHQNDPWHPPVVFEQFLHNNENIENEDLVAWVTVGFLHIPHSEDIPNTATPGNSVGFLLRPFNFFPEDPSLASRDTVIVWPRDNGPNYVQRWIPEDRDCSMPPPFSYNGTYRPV
The experiment in a line: Inhibitory activity on AOC1 (Amplex UltraRed). It is filed as biochemical. On the procedure: Recombinant human AOC1/DAO protein was purchased from R&D systems (Cat: 8298-AO). Amplex UltraRed was purchased from Thermo scientific (Cat: A36006). HRP (Cat: P8250) and Putrescine (Cat: V900377) were purchased from Sigma. Enzyme reaction buffer (50 mM HEPES, 120 mM NaCl, 5 mM KCl, 2 mM CaCl2, 1.4 mM MgCl2, 0.001% Tween-20, pH7.4) was prepared. Test compound was dissolved in DMSO and diluted by 3-fold concentration in gradient. The final concentration of test compound in 10 μL reaction system was 100 μM to 5 nM when AOC1 was detected. The content of DMSO in detection reaction was 1%. After the solution of test compound in DMSO was diluted in the enzyme reaction buffer at a volume ratio of 1:25, 10 μL of mixture was added to each well of detection plate. 4× substrate mixture (containing 400 μM Putrescine, 4 U/mL HRP, 4 μM Amplex UltraRed) was prepared in the enzyme reaction buffer, 10 μL of which was added to each well. 20 μL of AOC1 protein diluted in enzyme reaction buffer was added to each well at final concentration 0.4 nM in 40 μL reaction system. Synergy Neo 2 was used to read the plate for detection. The instrument was set at 30° C., 530 nm excitation wavelength, 590 nm emission wavelength. Detection was conducted once every minute for 30 minutes continuously. The enzyme activity was calculated based on the increased signal of each well from the 10th minute to the 30th minute. The value was converted into inhibition rate by the following formula Inhibition rate=(Signalpositive−Signaltest)/(Signalpositive−Signalnegative)×100%
Signalpositive was positive control without test compound. Signalnegative was negative control without test compound and AOC1, and Signaltest was detection value of different compounds at each concentration. IC50 value was calculated by using 4 parameter curve fitting.

Test [2] addresses T2, Recombinant human AOC2 protein (Homo sapiens, UniProt O75106).
T2 construct: Eli Lilly (provided, not a catalogue product)
T2 sequence (O75106 1-756): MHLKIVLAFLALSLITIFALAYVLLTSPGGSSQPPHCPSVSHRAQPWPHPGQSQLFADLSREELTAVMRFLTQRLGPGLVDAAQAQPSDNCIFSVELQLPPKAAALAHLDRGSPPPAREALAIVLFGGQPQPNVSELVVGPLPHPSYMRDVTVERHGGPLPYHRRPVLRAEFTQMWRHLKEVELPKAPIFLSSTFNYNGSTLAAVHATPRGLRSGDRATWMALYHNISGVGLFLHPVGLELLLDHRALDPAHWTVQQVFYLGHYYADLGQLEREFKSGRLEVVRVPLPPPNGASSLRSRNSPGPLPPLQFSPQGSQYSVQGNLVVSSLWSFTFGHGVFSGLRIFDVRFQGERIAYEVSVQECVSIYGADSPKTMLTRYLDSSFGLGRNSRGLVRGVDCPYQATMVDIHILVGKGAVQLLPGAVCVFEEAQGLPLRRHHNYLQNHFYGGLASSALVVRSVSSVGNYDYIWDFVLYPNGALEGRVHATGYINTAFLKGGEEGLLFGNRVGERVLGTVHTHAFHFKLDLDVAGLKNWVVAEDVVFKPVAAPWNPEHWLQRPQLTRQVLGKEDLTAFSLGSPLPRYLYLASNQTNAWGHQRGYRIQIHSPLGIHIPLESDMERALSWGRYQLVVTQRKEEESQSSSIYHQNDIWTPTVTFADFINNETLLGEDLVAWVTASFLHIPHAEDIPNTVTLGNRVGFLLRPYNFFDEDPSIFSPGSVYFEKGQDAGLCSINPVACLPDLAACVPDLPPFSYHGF
The experiment in a line: Inhibitory activity on AOC2. It counts as biochemical. On the procedure: Recombinant human AOC2 protein (provided by Eli Lilly). Other reagents are the same as those in Biological Test Example 1. The final concentration of test compound in 10 μL reaction system was 100 μM to 5 nM when AOC2 was detected, while other reaction conditions were the same as those in Biological Test Example 1. Data analysis and IC50 calculation method were the same as those in Biological Test Example 1.

The record followed here is patent US12258336B2, “Preparation of seimicarbazide-sensitive amine oxidase inhibitor and use thereof” (SHANGHAI ENNOVABIO PHARMACEUTICALS CO., LTD., priority 2018, dated 2025).

pIC50: −log10 of the molar value.

For orientation: pIC50 means the negative decadic logarithm of the IC50, by convention in mol/L. As for `N#Cc1cc(OC/C(=C/F)CN)cnc1N1CCN(C2COC2)CC1` [Example 7], the pIC50 in test [1] is below 5.00; in test [2] it was below 6.00.
`COC1CC2CC1CN2c1ncc(OC/C(=C/F)CN)cn1` (stereo not shown) [Example 2]: the pIC50 in test [1] is 5.00 to 7.00; in test [2], below 6.00.
The like results for `NC/C(=C/F)COc1cnc(N2CCN(C3COC3)CC2)nc1` [Example 8] were, in that order, below 5.00 and below 6.00.
Taken in the same sequence, the figures for `CC1(C)CN(c2ncc(OC/C(=C/F)CN)cn2)CCN1C1COC1` [Example 10] were below 5.00 and below 6.00.
Taken in the same sequence, the figures for `CC1(C)CN(C2COC2)CCN1c1ncc(OC/C(=C/F)CN)cn1` [Example 5] were below 5.00 and 6.00 to 7.00.
As to `NC/C(=C\F)COc1cnc(N2CCC3(CC2)COC3)nc1` [Example 3], the pIC50 was 5.00 to 7.00 in test [1] and below 6.00 in test [2].
Turning to `NC/C(=C\F)COc1cnc(N2CCN(c3cnc(N4CCN(C5COC5)CC4)nc3)CC2)nc1` [Example 9], the figures for the pIC50 in test [1] and in test [2] were 5.00 to 7.00 and 6.00 to 7.00, respectively.
The like results for `COC1CC2CCC(C1)N2c1ncc(OC/C(=C/F)CN)cn1` (stereo not shown) [Example 12] were, in that order, below 5.00 and below 6.00.
As for `NC/C(=C\F)COc1cnc(N2CCN(C3COC3)CC2)nc1` [Example 4, (E)-3-fluoro-2-(((2-(4-(oxbutan-3-yl)piperazin-1-yl)pyrimidin-5-yl)oxo)methyl)prop-2-en-1-amine], the negative logarithm of the IC50 (pIC50) in test [1] was below 5.00; in test [2], below 6.00.
The like results for `CC1CN(c2ncc(OC/C(=C/F)CN)cn2)CC(C)N1C1COC1` (stereo not shown) [Example 1, (E)-2-(((2-(3,5-dimethyl-4-(oxbutan-3-yl)piperazin-1-yl)pyrimidin-5-yl)oxo)methyl)-3-fluoroprop-2-en-1-amine] were, in that order, below 5.00 and 6.00 to 7.00.
The like results for `NC/C(=C\F)COc1cnc(N2CC3CCC(C2)N3C2COC2)nc1` [Example 6] were, in that order, below 5.00 and 6.00 to 7.00.
